{"source": "paper PMC7337247", "about": "(Critical care medicine, 2020)", "key": {"human PMN [1]": {"tested_on": "human PMN", "test": "PMN phagocytosis of pHrodo-labeled E. coli", "type": "cell-based", "conditions": "10 μg/mL Cytochalasin D, E. coli 20:1, 30 min 37°C"}, "human PMN [2]": {"tested_on": "human PMN", "conditions": "ref [7]; cited from earlier work"}, "BLT1 [3]": {"tested_on": "BLT1", "test": "Surface expression of BLT1 by flow cytometry", "type": "cell-based, human", "conditions": "100 nM ND6; with or without 1 μM POL7200 pretreatment; 3 separate experiments"}, "CXCR2 [4]": {"tested_on": "CXCR2", "test": "Surface expression of CXCR2 by flow cytometry", "type": "cell-based, human", "conditions": "100 nM ND6; with or without 1 μM POL7200 pretreatment"}, "human FPR1": {"target": "T1, human FPR1 (Homo sapiens, UniProt P21462)", "T1 sequence (P21462 1-350)": "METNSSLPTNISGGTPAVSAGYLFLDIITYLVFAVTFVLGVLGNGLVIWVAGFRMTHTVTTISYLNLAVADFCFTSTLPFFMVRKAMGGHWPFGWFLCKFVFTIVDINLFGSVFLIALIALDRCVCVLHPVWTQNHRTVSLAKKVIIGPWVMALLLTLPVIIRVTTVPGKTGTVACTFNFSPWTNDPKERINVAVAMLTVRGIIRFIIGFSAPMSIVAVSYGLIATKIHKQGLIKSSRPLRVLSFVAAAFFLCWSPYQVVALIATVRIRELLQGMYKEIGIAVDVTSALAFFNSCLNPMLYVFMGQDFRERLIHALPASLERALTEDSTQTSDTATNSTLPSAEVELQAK", "conditions": "cited from earlier work"}, "BLT1 [5]": {"tested_on": "BLT1", "test": "fMLF-induced heterologous desensitization: LTB4-induced Ca2+ depletion", "type": "cell-based, human", "conditions": "fMLF 10 nM or 100 nM; 100 nM LTB4"}, "[6]": {"tested_on": "wild type bone marrow PMN", "test": "fMLF desensitization of migration to KC, wild type mouse BM-PMN", "type": "cell-based", "conditions": "fMLF 100 nM or 1 μM for 45 min; KC 100 ng/mL; 60 min"}, "CXCR2 [7]": {"tested_on": "CXCR2", "test": "fMLF-induced heterologous desensitization: CXCL1-induced Ca2+ depletion", "type": "cell-based, human", "conditions": "pre-treatment with fMLF; 5 nM CXCL1"}, "Fpr2-KO bone marrow PMN": {"tested_on": "Fpr2-KO bone marrow PMN", "test": "fMLF desensitization of migration to KC, Fpr2-KO mouse BM-PMN", "type": "cell-based", "conditions": "fMLF 100 nM or 1 μM for 45 min; KC 100 ng/mL; 60 min"}, "Fpr1-KO bone marrow PMN": {"tested_on": "Fpr1-KO bone marrow PMN", "test": "fMLF desensitization of migration to KC, Fpr1-KO mouse BM-PMN", "type": "cell-based", "conditions": "fMLF 100 nM or 1 μM for 45 min; KC 100 ng/mL; 60 min"}}, "note": "Entries after “also recorded” stand apart in the source; their conditions may differ. Where two headings read alike, the source gives them in different places."}
{"molecule": "C=C1[C@@H](C)[C@H]2[C@H](Cc3ccccc3)NC(=O)[C@]23[C@H](OC(C)=O)/C=C/[C@@](C)(O)C(=O)[C@@H](C)C/C=C/[C@H]3[C@@H]1O", "note": "[Cytochalasin D]", "values": [{"measurement": "effect on phagocytosis, positive control", "setting": "human PMN [1]", "value": "expected suppression of phagocytosis"}, {"measurement": "effect on phagocytosis, positive control", "setting": "human PMN [1]; listed as cytochalasin D", "value": "inhibited PMN phagocytosis"}]}
{"molecule": "fMMYALF [ND6]", "values": [{"measurement": "potency as inducer of PMN Ca2+ release/chemotaxis", "setting": "human PMN [2]", "value": "potent inducer of human PMN Ca^2+ release and chemotaxis; also recorded: even more potent than fMLF; also recorded: most potent human mtFP"}, {"measurement": "effect on BLT1 surface expression", "setting": "BLT1 [3]", "value": "significantly reduces expression of BLT1"}, {"measurement": "effect on CXCR2 surface expression", "setting": "CXCR2 [4]", "value": "significantly reduces expression of CXCR2; also recorded: internalized and decreased the surface expression of CXCR2 and BLT1"}, {"measurement": "receptor through which it acts", "setting": "human FPR1; 100 nM, ref [7]", "value": "acts exclusively at FPR1"}]}
{"molecule": "N-formyl-methionyl-leucyl phenylalanine [fMLF]", "values": [{"measurement": "suppression of LTB4-induced Ca2+ response by fMLF pre-treatment", "setting": "BLT1 [5]", "value": "markedly inhibits Ca^2+ flux response to LTB4; also recorded: significantly reduced calcium depletion"}, {"measurement": "effect of fMLF pre-exposure on migration toward KC, wild type", "setting": "[6]", "value": "inhibited migration toward the CXC-chemokine KC; also recorded: desensitized to KC by prior fMLF exposure"}, {"measurement": "suppression of CXCL1-induced Ca2+ response by fMLF pre-treatment", "setting": "CXCR2 [7]", "value": "strongly inhibits that response; also recorded: significantly reduced calcium depletion"}, {"measurement": "receptor through which it acts", "setting": "human FPR1; nanomolar concentrations, ref [17]", "value": "acts exclusively through high-affinity human FPR1 receptors"}, {"measurement": "effect of fMLF pre-exposure on migration toward KC, Fpr2-KO", "setting": "Fpr2-KO bone marrow PMN", "value": "inhibited migration toward the CXC-chemokine KC; also recorded: desensitized to KC by prior fMLF exposure"}, {"measurement": "effect of fMLF pre-exposure on migration toward KC, Fpr1-KO", "setting": "Fpr1-KO bone marrow PMN", "value": "PMN migration to KC persisted; also recorded: protected from chemokine desensitization"}]}
